Patent US4594238A (Regents of University of Minnesota, priority 1984, dated 1986)

Assays:
[1] = Urinary excretion of free and conjugated DDTC; type: in vivo, rats; conditions: combination of DDTC and acetazolamide, even when NaDDTC dose reduced by 80%
From the text: Intravenous administration was explored in an attempt to deliver larger quantities of free DDTC anion to the likely site of toxicity in the renal tubule; urinary excretion of DDTC was monitored as a means of estimating changes in tubular levels of free DDTC. The standard assay for DDTC anion utilizes a spectrophotometric determination following reaction with cupric ion to form the colored Cu(DDTC)2 complex. Unfortunately, the affinity of cupric ion for sulfur ligands is such that this metal ion will catalyze the decomposition of the DDTC glucuronide and therefore will not discriminate between free and conjugated DDTC. Ferric ion does react selectively with the free ligand, thereby providing a convenient assay for both free and total DDTC in urine.
Excretion of free and conjugated NaDDTC in the urine of rats was measured as follows. NaDDTC was administered in selected doses via intraperitoneal or intravenous injection. Rats were then placed in metabolic cages and urine was collected and analyzed at 30 minute intervals. Urine samples (0.1-5.0 ml) were added to 2 ml of a solution containing ferric nitrate (20 mM) and sodium citrate (200 mM). The dark Fe (DDTC)3 complex was extracted into chloroform (4 ml) by vortexing for 5 minutes. The mixture was chilled, centrifuged for 1 minute, and the chloroform layer separated. To this chloroform solution was added saturated aqueous cupric sulfate (2 ml), and the mixture was vortexed for 5 minutes, chilled, and centrifuged for 1 minute. The chloroform solution was separated and the Cu(DDTC)2absorbance measured at 435 nm. Free DDTC was determined by comparison of absorbance to a standard curve. Total DDTC was determined by addition of 0. 05-1.0 ml of urine to 3 ml of saturated cupric sulfate followed by incubation at 45° for 30 minutes. The resulting Cu(DDTC)2 complex was extracted into chloroform and analyzed as described above. DDTC-glucuronide excretion was determined by subtraction of free from total DDTC.

[2] = cited from earlier work; for Bone marrow toxicity: in vivo
[3] = cited from earlier work; for Benefit when given before platinum(II): given before the platinum (II); for Binding to plasma platinum: in vivo
[4] = Protection of rats against DDP toxicity by disulfiram via stomach tube, Example 1; type: in vivo, Male F344 (Fischer) rats; conditions: disulfiram 2 g/kg via stomach tube 30 minutes before and 30 minutes after DDP
Procedure: Male F344 (Fischer) rats (average weight, 150 g) were obtained from the Charles River Breeding Laboratory. They were divided into groups of four rats, placed in methacrylate cages, and given National Institute of Health chow for rodents and water ad lib, for 7 days. Average weight of the rats was 180 g (range, 160-200 g) when injected.
Tetraethylthiuram disulfide (disulfiram) was obtained from Sigma Chemical Co., St. Louis MO. Sodium DDTC was prepared according to the procedure of Klopper and van der Kerk, Rec. Trav. Chim. 70:917 (1951); immediately prior to injection, it was dissolved in sterile water at a concentration of 100 mg/ml. Sodium bicarbonate was prepared in sterile water at a concentration of 50 mg/ml. All injections were carried out under brief ether anesthesia.
Otherwise, weight and BUN were determined at 5 days after injection, reportedly the time of maximal observed toxicity. Evidence of gastrointestinal toxicity was obtained qualitatively by noting the presence or absence of diarrhea 3-5 days after injection.
Disulfiram was administered to two groups of rats in lieu of NaDDTC, as described subsequently.

[5] = polar solvents; cited from earlier work

Molecule: CC(=O)Nc1nnc(S(N)(=O)=O)s1 [acetazolamide, reference compound]
- Renal excretion of DDTC with acetazolamide [1]: significant increases in renal excretion of DDTC

Molecule: N.N.O=C([O-])C1(C(=O)[O-])CCC1.[Pt+2] [CBDCA]
- Bone marrow toxicity [2]: increased bone marrow toxicity

Molecule: CC(C)(S)[C@@H](N)C(=O)O [penicillamine]
- Benefit when given before platinum(II) [3]: Some benefit was reported
- Binding to plasma platinum [3]: may have the potential to bind to plasma platinum

Molecule: chlorohydroxy-isopropylamineplatinum [CHIP]
- Kidney toxicity ([2]; compared to first generation agents): low in kidney toxicity
- Bone marrow toxicity [2]: high in bone marrow toxicity

Molecule: CCN(CC)C(=S)SSC(=S)N(CC)CC [disulfiram, Tetraethylthiuram disulfide]
- BUN in survivors [4]: 55 to 180 mg/dL
- Necropsy, intestine [4]: grossly hemorrhagic fluid-filled intestine
- Weight loss and BUN levels in the survivors [4]: highly variable
- Animals that died before day 5 ([4]; in each group): Fifty
- Solubility in polar solvents [5]: relatively low solubility, particularly in polar solvents

Molecule: NCC1(CN)CCCCC1.O=S(=O)([O-])[O-].[Pt+2] [TNO-6]
- Bone marrow toxicity [2]: increased bone marrow toxicity

Molecule: N[C@@H](CS)C(=O)O [cysteine]
- Benefit when given before platinum(II) [3]: Some benefit was reported
- Binding to plasma platinum [3]: may have the potential to bind to plasma platinum
